From patent US20250066507A1, “METHODS OF TREATING CANCER WITH A COMBINATION OF AN ANTI-PD-1 ANTIBODY AND AN ANTI-TISSUE FACTOR ANTIBODY-DRUG CONJUGATE” (Genmab A/S, priority 2018, published 2025)
Square brackets hold non-standard residues; d marks the D form. Peptide text beside a SMILES is read from it. * marks the point of attachment. Dolaproine = CO[C@@H]([C@@H]1CCCN1)[C@@H](C)C(=O)O; Dil = CC[C@H](C)[C@H](NC)[C@@H](CC(=O)O)OC; X1 = C[C@@H](N*)[C@@H](O)c1ccccc1; NMeV = CN[C@H](C(=O)O)C(C)C

Key:
T cells = assay: T cell activation in CSFE labeled PBMCs fed drug-killed MDA-MB-231 cells, with or without nivolumab; format: cell-based, human; settings: for T cell proliferation (CSFE dilution) / IFNγ production / IL12p70 production: MDA-MB-231 cells exposed to the agent; for T cell proliferation (CSFE dilution): fed to CSFE labeled human PBMCs for 48 hours; for IFNγ production / IL12p70 production: fed to human PBMCs for 48 hours
Excerpt: Induction of the innate immune response following exposure to cancer cells undergoing ICD sets up secondary T cell activation, which can be enhanced by concomitant anti-PD1 treatment.

[1] = test system: Tissue Factor positive cell lines; assay: Release of ICD molecules ATP and HMGB1 from Tissue Factor positive cells; format: cell-based; settings: for ATP secretion: FIG. 4A; for HMGB1 release: FIG. 4C
Excerpt: Auristatin ADC payloads disrupt the microtubule networks resulting in altered ER localization and function, which ultimately results in ER stress. Cells exposed to Tissue Factor directed antibody linked to the monomethyl auristatin E payload (MMAE), i.e., tisotumab vedotin (an antibody drug conjugate or ADC), undergo cell death and as they do release the ICD related molecules ATP (FIG. 4A) and HMGB1 (FIG. 4C). The release of these molecules is specific to tisotumab vedotin ADC and MMAE treatment and occurs across multiple Tissue Factor positive cell lines (FIG. 4B).

[2] = test system: CD14+ monocyte/macrophages; assay: Monocyte/macrophage activation in PBMCs fed drug-killed MDA-MB-231 cells; format: cell-based; settings: MDA-MB-231 cells killed with the agent, fed to human PBMCs; for monocyte/macrophage activation monitored by CD86 expression: flow cytometry
Excerpt: FIGS. 6A and 6B is a series of graphs in which Tissue Factor positive MDA-MB-231 cells killed with various agents were fed to human peripheral blood mononuclear cells (PBMCs) and immune activation assessed by increased expression of activations markers on innate CD14+ monocyte/macrophages and induction of chemokine and cytokine production.
Immunogenic cell death, as mediated by MMAE, is regulated cell death that activates adaptive immune responses against antigens from dead and dying tumor cells, and allows for the generation of robust innate immune cell activation and subsequent cytotoxic T cell responses targeted towards specific tumor cell antigens. […] Furthermore, these monocyte/macrophages conditioned by ICD-killed cells promote activation of T cells, as evidenced by production of signature inflammatory cytokines associated with cytotoxic T cell responses.

[3] = test system: HPAFII (pancreatic carcinoma); assay: Western blot of ER stress pathways in HPAFII cells; format: cell-based; settings: 18 hours (FIG. 5 legend: 16 hours)
Experimental: (§1) Induction of cell death and release of ICD danger signals occurs concomitant with initiation of an ER stress response. Two Tissue Factor positive cell lines, HPAFII (pancreatic carcinoma) and MDA-MB-231 (breast cell carcinoma) were exposed to tisotumab vedotin ADC, an Isotype-MMAE ADC (H00-MMAE, IgG1 MMAE), or free MMAE for 18 hours and induction of ER stress monitored by western blot analysis. Phosphorylation of inositol-requiring transmembrane kinase/endonuclease 1 (IRE1) was detected after treatment with tisotumab vedotin ADC or MMAE free drug (FIG. 5). […] The ability for auristatins to prime the immune system to recognize tumor antigens opens the door for a myriad of combinatorial therapeutic options.

wild-type tumor cells = assay: Syngeneic model: immunization with drug-killed human TF positive tumor cells, then tumor challenge; format: in vivo, Balb/c mice; settings: for survival after challenge / tumor growth after challenge: Balb/c mice immunized with human TF positive tumor cells killed by the agent, challenged s.c. with 5×10^6 wild-type tumor cells
Experimental: Mouse tumor cells are transfected with plasmid constructs encoding human tissue factor (TF) and sgRNA-guided Cas9 nuclease (sgRNA/Cas9) to generate a murine cell line that expresses the human TF. Fluorescence activated cell sorting (FACS) yields a clonal population of murine tumor cells that stably express human TF, these cells are then treated with lpg to 5 μg per ml of tisotumab vedotin or 100 nM of MMAE for 4 days. In order to prepare dying cells for immunization, treated murine tumor cells are overlaid atop Histopaque, and centrifuged at 2000 g for 30 minutes. Dead and dying cells are pelleted underneath the Histopaque layer, and viability assessed by trypan blue exclusion. A sample with approximately <20% live cells as measured by trypan blue exclusion is obtained. Flash-frozen tumor cells are prepared by submerging the cells in liquid nitrogen for 10 seconds, followed by immersion in 37° C. water until completely thawed. The liquid nitrogen freeze-thaw process is repeated 5 times. Dead and dying human TF positive tumor cells are resuspended in phosphate buffered saline (PBS) and 2×10^6 cells are injected into the peritoneum of immune-competent Balb/c mice. Seven days later, mice receive a second immunization with dead and dying cells prepared in the same manner.
Fourteen days after initial immunization with the dead and dying human TF positive tumor cells, mice are subcutaneously implanted with 5×10^6 wild-type tumor cells and monitored for tumor growth. […] As these effects occur in the absence of any administered therapeutic agent, the administration of cells killed by tisotumab vedotin or MMAE is sufficient to generate long-lasting protective immune memory against subsequent tumor cell challenge. Protective immune memory is amplified by treating these mice with tisotumab vedotin in combination with an antibody that binds to murine PD-1. This combination treatment increases the number of mice that are cured by subsequent tumor challenge.

[4] = test system: MDA-MB-231 (breast cell carcinoma); assay: Western blot of ER stress pathways in MDA-MB-231 cells; format: cell-based; settings: 18 hours (FIG. 5 legend: 16 hours)
Experimental: as §1

HeLa cells [5] = assay: Live imaging of RFP-tubulin and ER-ID Green in MMAE-treated HeLa cells; format: cell-based; settings: 100 nM MMAE, imaged over time
Experimental: Treatment of HeLa cells with MMAE led to disassembly of the microtubule network and subsequent ER mislocalization. HeLa cells were transduced with a baculovirus encoding RFP-labeled Tubulin (CellLight Tubulin-RFP, ThermoFisher Scientific) and an ER-binding dye (ER-ID Green, Enzo Life Sciences). Cells were treated with 100 nM MMAE and imaged over time in the present of MMAE. Within 2 hours, fragmentation and disassembly of the microtubule network became evident, concurrent with the breakdown of the perinuclear organized ER lattice (FIGS. 2A and B). The condensed and mislocalized ER skeleton indicated severe ER stress within 8 hours.

HeLa cells [6] = assay: ATP and HMGB1 secretion from MMAE-treated HeLa cells; format: cell-based; settings: 100 nM MMAE, over 24 hours, versus untreated cells
Excerpt: Induction of ICD is also characterized by the secretion of ATP and HMGB1. Extracellular ATP serves as a strong chemotactic signal, promoting immune cell migration to the tumor site. Upon arrival, extracellular HMGB1 signals through various pro-inflammatory receptors (TLR2, TLR4, RAGE) to activate antigen-presenting cells, thereby promoting immune activity within the tumor.

HeLa cells [7] = assay: Western blot of ER stress signalling in MMAE-treated HeLa cells; format: cell-based; settings: 100 nM MMAE, 16 hours
Experimental: HeLa cells, a cervical cancer cell line, were cultured in Minimum Essential Medium (MEM) with 10% FBS, 10 mM HEPES, 1 mM sodium pyruvate, 2 mM L-glutamine, penicillin (100 U/ml), and streptomycin (100 μg/ml). HeLa cells were treated with 100 nM MMAE for 16 hours and harvested in radioimmunoprecipitation assay buffer (RIPA) buffer for western blot analysis. […] Severe ER stress is a prerequisite to the exposure of pro-phagocytic signals on the surface of tumor cells, and can be indicated by activation of JNK signaling by phosphorylated IRE1.

advanced cervical cancer = settings: 240 mg Q2W, 19 patients with previously treated; cited from earlier work
[8] = concomitant nivolumab treatment, 48 hours

Row | Molecule | T cell proliferation (CSFE dilution) (T cells) | IFNγ production (T cells) | IL12p70 production (T cells) | ATP secretion [1] | HMGB1 release [1] | release of innate chemokines including MIP10 [2] | monocyte/macrophage activation monitored by CD86 expression [2] | ATF4 cleavage (PERK pathway) [3] | activation of JNK (phosphorylation) [3] | phosphorylation of IRE1 [3] | survival after challenge (wild-type tumor cells) | tumor growth after challenge (wild-type tumor cells) | ATF4 cleavage (PERK pathway) [4] | activation of JNK (phosphorylation) [4] | phosphorylation of IRE1 [4] | further results
1 | tisotumab | did not elicit these responses | did not elicit these responses | did not elicit these responses |  |  |  |  |  |  |  |  |  |  |  |  | 
2 | tisotumab vedotin | drove T cell proliferation | increased | increased | robust | robust | induced release | drove monocyte/macrophage activations | upregulation of ATF4 cleavage | increased phosphorylation | detected | increased survival | delayed tumor growth | upregulation of ATF4 cleavage | increased phosphorylation | detected | activity (release of ICD molecules) on multiple Tissue Factor positive cell lines ([1]; FIG. 4B): active; number of mice cured by subsequent tumor challenge (wild-type tumor cells; immunized mice treated with tisotumab vedotin in combination with an antibody that binds to murine PD-1): increases
3 | CC[C@H](C)[C@@H]([C@@H](CC(=O)N1CCC[C@H]1[C@H](OC)[C@@H](C)C(=O)N[C@H](C)[C@@H](O)c1ccccc1)OC)N(C)C(=O)[C@@H](NC(=O)[C@@H](NC)C(C)C)C(C)C [MMAE, monomethyl auristatin E] (H-[NMeV]V[Dil][Dolaproine]-X1) | drove T cell proliferation | increased | increased | robust | robust | induced release | drove monocyte/macrophage activations | upregulation of ATF4 cleavage | increased phosphorylation | detected | increased survival | delayed tumor growth | upregulation of ATF4 cleavage | increased phosphorylation | detected | time until condensed and mislocalized ER skeleton indicated severe ER stress (HeLa cells [5]): ≤ 8 h; time until fragmentation and disassembly of the microtubule network and breakdown of the perinuclear ER lattice became evident (HeLa cells [5]): ≤ 2 h; secretion of ATP (HeLa cells [6]): increased secretion; secretion of HMGB1 (HeLa cells [6]): increased secretion; phosphorylation of IRE1 (HeLa cells [7]): led to phosphorylation; phosphorylation of JNK (HeLa cells [7]): phosphorylation of IRE1 and JNK
4 | nivolumab: anti-PD-1 antibody, a checkpoint inhibitor |  |  |  |  |  |  |  |  |  |  |  |  |  |  |  | effect of nivolumab on T cell proliferation driven by tisotumab vedotin or MMAE killed cells (T cells; 2 mg/ml of nivolumab, 48 hours): enhanced; effect of concomitant nivolumab on IFNγ production after tisotumab vedotin and MMAE killed cells (T cells; [8]): increased; effect of concomitant nivolumab on IL12p70 production after tisotumab vedotin and MMAE killed cells (T cells; [8]): increased; objective response rate (advanced cervical cancer): 26%
